Holding throughout (format): in vivo
The subject of experiment [1] is Alopecurus myosuroides (ALOMY). Nature of the experiment: Pre-emergence biological efficacy, glasshouse pot test. The note with it: 312 h, pre-emergence, 1,000 g/ha, evaluated after 13 days (100=total damage; 0=no damage), read-out: Percentage damage ALOMY. In a few lines:
(§1)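 Damage was rated on a 0–100 scale 13 days after treatment, with plants kept at 24/16° C, 14 h light and 65% humidity. The pre-emergence spray, at 1000 or 250 g/ha in acetone/water 50:50 with 0.5% Tween 20, was applied one day after sowing.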

The test system of experiment [2] is Ipomea hederaceae (IPOHE). The experiment is described as above. Conditions: Ipomoea hederacea, 312 h; pre-emergence, 1,000 g/ha, evaluated after 13 days (100=total damage; 0=no damage); read-out: Percentage damage IPOHE. In a few lines: as §1
Experiment [3] concerns Solanum nigrum (SOLNI). Described as above. Conditions: 312 h, pre-emergence, 1,000 g/ha, evaluated after 13 days (100=total damage; 0=no damage), read-out: Percentage damage SOLNI. In short, it runs like this: as §1
The test system of experiment [4] is Amaranthus retoflexus (AMARE). The description is as above. The note with it: Amaranthus retroflexus, 312 h; pre-emergence, 1,000 g/ha, evaluated after 13 days (100=total damage; 0=no damage); read-out: Percentage damage AMARE. In a few lines: as §1
In experiment [5] the test system is Setaria faberi (SETFA). Described as above. Conditions: 312 h, pre-emergence, 1,000 g/ha, evaluated after 13 days (100=total damage; 0=no damage), read-out: Percentage damage SETFA. In a few lines:
as §1

Experiment [6] deals with Echinochloa crus-galli (ECHCG). The experiment is described as above. Conditions: 312 h, pre-emergence, 1,000 g/ha, evaluated after 13 days (100=total damage; 0=no damage), read-out: Percentage damage ECHCG. In a few lines: as §1
Experiment [7] concerns Alopecurus myosuroides (ALOMY). Nature of the experiment: Post-emergence biological efficacy, glasshouse pot test. Conditions: 312 h, post-emergence, 1,000 g/ha, evaluated after 13 days (100=total damage; 0=no damage), read-out: Percentage damage caused to weed species, ALOMY. In short, it runs like this: (§2)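 Scored 13 days after spraying on a 0 (no damage) to 100 (total damage) scale. Treatment was a post-emergence spray at 1000 or 250 g/ha, from acetone/water 50:50 plus 0.5% Tween 20, onto 8-day-old plants in soil pots. Growth at 24/16° C, 14 h photoperiod, 65% humidity, watered twice daily.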

The test system of experiment [8] is Ipomea hederaceae (IPOHE). Described as above. Conditions: Ipomoea hederacea, 312 h; post-emergence, 1,000 g/ha, evaluated after 13 days (100=total damage; 0=no damage); read-out: Percentage damage caused to weed species, IPOHE. In a few lines: as §2
The subject of experiment [9] is Solanum nigrum (SOLNI). Described as above. The note with it: 312 h, post-emergence, 1,000 g/ha, evaluated after 13 days (100=total damage; 0=no damage), read-out: Percentage damage caused to weed species, SOLNI. In a few lines: as §2
For experiment [10], the system named is Amaranthus retoflexus (AMARE). Described as above. Conditions: Amaranthus retroflexus, 312 h; post-emergence, 1,000 g/ha, evaluated after 13 days (100=total damage; 0=no damage); read-out: Percentage damage caused to weed species, AMARE. In short, it runs like this:
as §2

Experiment [11] has as its system Setaria faberi (SETFA). Described as above. The note with it: 312 h, post-emergence, 1,000 g/ha, evaluated after 13 days (100=total damage; 0=no damage), read-out: Percentage damage caused to weed species, SETFA. In short, it runs like this: as §2
Experiment [12] has as its system Echinochloa crus-galli (ECHCG). The description is as above. The note with it: 312 h, post-emergence, 1,000 g/ha, evaluated after 13 days (100=total damage; 0=no damage), read-out: Percentage damage caused to weed species, ECHCG. In a few lines: as §2

Consider `COC(=O)c1nc(C2CC2)nc(NCC(O)COc2ccc(Cl)cc2)c1Cl` (stereo not drawn) [Compound 4-264, 5-Chloro-4-[3-(4-chlorophenoxy)-2-hydroxy-propylamino]-2-cyclopropyl-6-methoxycarbonyl-pyrimidine], for which the pest or weed control at 1000 g/ha in experiment [1] amounted to 40%; in [2], 90%; in experiment [3], 90%; in experiment [4] it was 80%; in [5], 80%; in experiment [6], 60%. The pest or weed control at 1000 g/ha in [7] worked out at 30%; in experiment [8] it was 60%; in experiment [9], 100%; in [10] it was 100%; in experiment [11], 70%; in [12], 50%.

On to `COC(=O)c1nc(C2CC2)nc(NCC(=O)OCc2ccccc2)c1Cl` [Compound 4-265, 5-Chloro-2-cyclopropyl-6-methoxycarbonyl-4-(phenylmethoxy-carbonylmethyl-amino)pyrimidine], for which the pest or weed control at 1000 g/ha was found to be 10% in experiment [1]; 90% in [2]; 90% in experiment [3]; 100% in experiment [4]; 30% in [5]; 30% in experiment [6]. Besides, the pest or weed control at 1000 g/ha in experiment [7] stood at 20%; in [8], 60%; in [9], 70%; in [10] it was 100%; in experiment [11], 40%; in [12], 20%.

Take `COC(=O)c1nc(C2CC2)nc(NCCC(=O)OCc2ccccc2)c1Cl` [Compound 4-266, 5-Chloro-2-cyclopropyl-6-methoxycarbonyl-4-[2-(phenylmethoxy-carbonyl)ethyl-amino]-pyrimidine]: the pest or weed control at 1000 g/ha in [1] is 50%; in [2] it was 100%; in experiment [3], 100%; in experiment [4], 100%; in experiment [5], 60%; in experiment [6], 60%. Further, the pest or weed control at 1000 g/ha worked out at 60% in experiment [7]; 100% in experiment [8]; 80% in experiment [9]; 100% in [10]; 70% in [11]; 50% in experiment [12].

`COC(=O)c1nc(C2CC2)nc(NCC(c2ccccc2)c2ccccc2)c1Cl` [Compound 4-267, 5-Chloro-2-cyclopropyl-4-[2,2-(diphenyl)-ethylamino]-6-methoxycarbonyl-pyrimidine]: the pest or weed control at 1000 g/ha in experiment [1] was found to be 10%; in experiment [2], 60%; in [3], 60%; in experiment [4], 90%; in experiment [5], 10%; in experiment [6], 10%. For the same compound, the pest or weed control at 1000 g/ha in experiment [7] was 10%; in [8], 70%; in experiment [9] it was 80%; in [10], 90%; in experiment [11] it was 20%; in [12], 10%.

As to `COC(=O)c1nc(C2CC2)nc(NC(C)COc2ccccc2)c1Cl` (stereo not drawn) [Compound 4-268, 5-Chloro-2-cyclopropyl-6-methoxycarbonyl-4-(2-phenoxy-1-methylethylamino)-pyrimidine], the pest or weed control at 1000 g/ha in [1] worked out at 0%; in [2], 10%; in experiment [3], 10%; in experiment [4] it was 10%; in experiment [5], 0%; in experiment [6], 0%. Moreover, the pest or weed control at 1000 g/ha came to 10% in experiment [7]; 50% in experiment [8]; 60% in [9]; 30% in [10]; 10% in experiment [11]; 10% in experiment [12].

For `COC(=O)c1nc(C2CC2)nc(NC(C)COc2ccc(C#N)cc2)c1Cl` (stereo not drawn) [Compound 4-269, 5-Chloro-4-[2-(4-cyanophenoxy)-1-methyl-ethylamino]-2-cyclopropyl-6-methoxycarbonyl-pyrimidine], the pest or weed control at 1000 g/ha was 0% in experiment [1]; 0% in experiment [2]; 0% in experiment [3]; 40% in [4]; 0% in [5]; 0% in experiment [6]. Also, the pest or weed control at 1000 g/ha turned out to be 20% in experiment [7]; 90% in [8]; 70% in experiment [9]; 100% in experiment [10]; 60% in experiment [11]; 0% in experiment [12].

In the case of `COC(=O)c1nc(C2CC2)nc(NC(C)C(O)c2ccc(O)cc2)c1Cl` (stereo not drawn) [Compound 4-271, 5-Chloro-2-cyclopropyl-4-[2-hydroxy-2-(4-hydroxyphenyl)-1-methyl-ethylamino]-6-methoxycarbonyl-pyrimidine], the pest or weed control at 1000 g/ha in [1] came to 20%; in [2], 100%; in experiment [3], 90%; in [4], 100%; in experiment [5] it was 30%; in experiment [6] it was 20%. Further, the pest or weed control at 1000 g/ha turned out to be 30% in experiment [7]; 100% in experiment [8]; 90% in [9]; 100% in experiment [10]; 80% in experiment [11]; 70% in [12].

Take `COC(=O)c1nc(C2CC2)nc(NC(CO)Cc2ccc(Cl)cc2)c1Cl` (stereo not drawn) [Compound 4-274, 5-Chloro-4-[2-(4-chlorophenyl)-1-hydroxymethyl-ethylamino]-2-cyclopropyl-6-methoxycarbonyl-pyrimidine]: the pest or weed control at 1000 g/ha in experiment [1] is 40%; in experiment [2], 80%; in experiment [3], 80%; in [4], 60%; in [5], 40%; in experiment [6] it was 30%. Moreover, the pest or weed control at 1000 g/ha was determined as 30% in experiment [7]; 50% in [8]; 80% in experiment [9]; 100% in [10]; 30% in [11]; 20% in experiment [12].

For the compound `COC(=O)c1nc(C2CC2)nc(NC(c2ccccc2)c2ccccc2)c1Cl` [Compound 4-277, 5-Chloro-2-cyclopropyl-4-(diphenylmethyl-amino)-6-methoxy-carbonylpyrimidine], the pest or weed control at 1000 g/ha in experiment [1] amounted to 0%; in experiment [2] it was 40%; in experiment [3], 0%; in experiment [4], 0%; in experiment [5] it was 0%; in experiment [6] it was 0%. For the same compound, the pest or weed control at 1000 g/ha in [7] stood at 30%; in experiment [8], 70%; in [9], 50%; in [10] it was 90%; in experiment [11], 50%; in experiment [12] it was 50%.

The values are drawn from US20110086759A1, “CHEMICAL COMPOUNDS” (SYNGENTA CROP PROTECTION, INC., priority 2007, published 2011).
